Results: US20120239131A1, “METHODS AND APPARATUS FOR TREATMENT OF ANEURYSMAL TISSUE” (Medtronic Vascular, Inc., priority 2011, published 2012)

Columns and labels:
Assay type in all cases: in vivo, ApoE−/− mice
aneurysm = test: Aneurysm incidence over time, ApoE−/−+Ang II AAA model; settings: aneurysm = dissection or more than 50% increase in diameter, versus doxycycline and saline control
Experimental: (§1) ApoE−/− mice used in this study were divided into different pretreatment groups: 1) Fluvastatin-MF; 2) Doxycycline-MD; 3) Irbesartan-MI; 4) Telmisartan-MT; 5) Control (water) and fed medicated chow or medicated drinking water 1 week prior to pump implantation. AngII (1000 ng·kg^−1 of body weight·min^−1) was infused subcutaneously via Alzet mini-osmotic pumps for 28 days. All mice were maintained on the medicated chow (MI & MT) or medicated drinking water (MF & MD) treatments which were delivered daily for a total of 28 days following pump implantation.
(§2) In order to determine the effect of the various treatments on the progressive enlargement of the experimental AAAs the mice were followed with high frequency trans-abdominal ultrasound. Maximum aortic diameter was measured and recorded prior to pump implantation and then at 3, 7, 14, 21, and 28 days. All mice were sacrificed 28 days after pump implantation. Aortae were harvested and subjected to either histological analysis (Elastic Masson trichome, MAC2, CD31 and TUNEL staining) and analysis of mural gene expression. Plasma drug concentrations of experimental compounds were quantified on the day of sacrifice using high performance liquid chromatography (HPLC).
Aneurysm was defined as either the presence of dissection or more than 50% increase in diameter.

AAA = test: Aortic diameter by ultrasonography, ApoE−/−+Ang II AAA model; settings: pretreatment 1 week before Ang II infusion, followed to 28 days, versus control and doxycycline
Description: The ApoE^−/−+Ang II AAA model is well established and supported by current scientific literature. Mice genetically predisposed to hypercholesterolemia develop aneurysms when treated with angiotensin II. Aneurysms generally develop within the first week after pump implantation and share many important pathologic characteristics with human AAA disease. ApoE−/− mice used in this study were divided into different pretreatment groups: 1) Fluvastatin-MF; 2) Doxycycline-MD; 3) Irbesartan-MI; 4) Telmisartan-MT; 5) Control (water) and fed medicated chow or medicated drinking water 1 week prior to pump implantation. AngII (1000 ng·kg^−1 of body weight·min^−1) was infused subcutaneously via Alzet mini-osmotic pumps for 28 days. All mice were maintained on the medicated chow (MI & MT) or medicated drinking water (MF & MD) treatments which were delivered daily for a total of 28 days following pump implantation. In order to determine the effect of the various treatments on the progressive enlargement of the experimental AAAs the mice were followed with high frequency trans-abdominal ultrasound. Maximum aortic diameter was measured and recorded prior to pump implantation and then at 3, 7, 14, 21, and 28 days. All mice were sacrificed 28 days after pump implantation. Aortae were harvested and subjected to either histological analysis (Elastic Masson trichome, MAC2, CD31 and TUNEL staining) and analysis of mural gene expression. Plasma drug concentrations of experimental compounds were quantified on the day of sacrifice using high performance liquid chromatography (HPLC).

ITGAL = test: Aortic mural gene expression, RT-PCR (TLDA); settings: fold change over ApoE−/− control; aorta, 28 days Ang II infusion
Experimental: as §1, §2
Total RNA was extracted from homogenized aortas using the Qiazol lysis reagent and RNeasy Lipid Tissue Mini kit. DNAse treatment was included in the procedure. RNA concentration was determined utilizing the Quant iT RNA assay kit. Complimentary deoxyribonucleic acid (cDNA) was synthesized from 1 μg RNA using High reverse cDNA transcription kit. Briefly the reaction tubes containing RNA, reverse transcriptase, buffer, RNAse inhibitor, and nuclease free water were incubated at 25° C. for 10 minutes to allow annealing. Reverse transcription was performed at 37° C. for 120 min, followed by a 5 sec incubation at 85° C. to inactivate the reverse transcriptase enzyme. The cDNA samples were cooled at 4° C. and stored at −80° C. until further use.
Real time PCR was performed using a 384-well Taqman low density array (TLDA) card. Each sample specific PCR mix contained 50 ng of total RNA converted to cDNA. The PCR reaction for Taqman assays contained 50 μl Master Mix (Taqman Universal PCR Master Mix,) and 50 ul of cDNA and RNAase free water. Assays were performed to include appropriate controls (no template control). The RT-PCR protocol included an initial step of 50° C. (2 minutes) […], denaturation by a hot start at 95° C. for 10 min, followed by 40 cycles of a 2 step program (denaturation at 95° C. for 15 secs for primer annealing/extension at 60° C. for 1 min). Fluorescence data was collected at 60° C. Fluorescence was quantified with ABI PRISM 7900HT Sequence Detection System. To verify amplification of a specific target cDNA, data generated was analyzed using SDS 2.2.3 software (Sequence Detection System Software, Applied Biosystems). For all amplification plots, the baseline data were set with the automatic CT function available with SDS 2.2.3 calculating the optimal baseline range and threshold value by using the AutoCT algorithm. According to the manufacturer's instruction, a CT value of ≧39 corresponds to nonspecific amplification marking the limits of detection. For endogenous control GAPDH was normalized to B2M. For relative quantification (RQ), pooled ApoE−/− control was used as the calibrator (with expression equal to 1).

Row | Compound | Inhibition of aneurysm development (aneurysm incidence) (aneurysm) | Inhibition of aneurysm development (aneurysm incidence) (aneurysm; listed as telmisartan) | Inhibition of aneurysm development/growth (aortic diameter) (AAA) | Inhibition of aneurysm development/growth (aortic diameter) (AAA; listed as telmisartan) | ITGAL expression (ITGAL)
1 | CCCc1nc2c(C)cc(-c3nc4ccccc4n3C)cc2n1Cc1ccc(-c2ccccc2C(=O)O)cc1 [Telmisartan] | inhibited aneurysm development well | effective in inhibiting aneurysm development | effective in inhibiting aneurysm development | effective in inhibiting/preventing aneurysm development | 
2 | CC(C)n1c(/C=C/C(O)CC(O)CC(=O)O)c(-c2ccc(F)cc2)c2ccccc21 (stereo not shown) [Fluvastatin] | effective in inhibiting aneurysm development |  | relative good inhibition of AAA |  | ++ (1.51 to 3 = ++)
